Bounds are passed on as bounds.

This passage reports IC50 results from patent publication US8242145B2, “Cyclic diaryl ether compounds as antagonists of prostaglandin D2 receptors” (Panmira Pharmaceuticals, LLC, priority 2008, dated 2012).

For assay [1], the target named is T1, recombinant human CRTH2 receptor (Homo sapiens, UniProt Q9Y5Y4).
T1 construct: expressed in transfected cells
T1 sequence (Q9Y5Y4 1-395): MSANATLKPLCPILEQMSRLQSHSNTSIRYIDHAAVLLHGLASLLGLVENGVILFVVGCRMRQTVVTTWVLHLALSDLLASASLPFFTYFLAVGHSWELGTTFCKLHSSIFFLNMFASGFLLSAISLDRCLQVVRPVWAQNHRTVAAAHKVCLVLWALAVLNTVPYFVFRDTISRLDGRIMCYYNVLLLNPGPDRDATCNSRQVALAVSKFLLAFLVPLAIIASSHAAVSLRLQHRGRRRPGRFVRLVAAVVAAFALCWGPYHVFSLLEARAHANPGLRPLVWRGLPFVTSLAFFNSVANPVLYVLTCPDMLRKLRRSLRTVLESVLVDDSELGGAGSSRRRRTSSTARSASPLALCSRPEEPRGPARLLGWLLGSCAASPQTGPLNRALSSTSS
Kind of assay: GTPγS binding assay. Conditions: +HSA; read-out: hDP2 GTPγS μM (+HSA). The assay is classed as biochemical. As to the method: The ability of a compound to inhibit binding of GTP to DP2 is assessed via a membrane GTPγS assay. CHO cells stably expressing the recombinant human CRTH2 receptor are resuspended in 10 mM Hepes, 7.4 containing 1 mM DTT, lysed and centrifuged at 75,000×g to pellet the membranes. The membranes are resuspended in 10 mM Hepes, 7.4 containing 1 mM DTT and 10% glycerol. Membranes (˜12.5 μg per well) are incubated in 96-well plates with 0.05 nM [^35S]-GTPγS, 80 nM PGD2, 5 μM GDP, and test compound in Assay Buffer (50 mM Hepes, pH 7.4, 100 mM NaCl, 5 mM MgCl2 and 0.2% human serum albumin) for 60 minutes at 30° C. The reactions are terminated by rapid filtration through Whatman GF/B glass fibre filter plates. The filter plates are washed 3 times with 1 ml cold Assay Buffer and dried. Scintillant is then added to the plates and the radioactivity retained on the filters is determined on a Packard TopCount (Perkin Elmer). Specific binding is determined as total radioactive binding minus non-specific binding in the absence of the ligand (80 nM PGD2). IC50s were determined using Graphpad prism analysis of drug titration curves.
For orientation: GTPγS resists hydrolysis and so accumulates on activated G proteins.

The target of the next assay is T2, human DP1 receptor (Homo sapiens, UniProt Q13258).
T2 construct: tissue Biological Specialty Corporation; host or cells: human platelets, membranes
T2 sequence (Q13258 1-359): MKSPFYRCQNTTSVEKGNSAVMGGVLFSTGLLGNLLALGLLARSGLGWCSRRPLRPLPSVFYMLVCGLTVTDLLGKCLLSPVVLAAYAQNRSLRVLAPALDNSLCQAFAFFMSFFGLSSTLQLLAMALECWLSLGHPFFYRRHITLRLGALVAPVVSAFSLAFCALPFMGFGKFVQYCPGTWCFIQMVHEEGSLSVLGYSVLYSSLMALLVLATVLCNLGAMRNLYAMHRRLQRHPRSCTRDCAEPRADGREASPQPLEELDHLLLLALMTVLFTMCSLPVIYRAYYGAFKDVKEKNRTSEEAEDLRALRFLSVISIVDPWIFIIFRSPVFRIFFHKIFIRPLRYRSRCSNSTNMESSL
The experiment in a line: DP1 radioligand binding assay using [3H]BWA868C. Conditions: hDP1 binding. As to the method:
The ability of a compound to bind to the human DP1 receptor was evaluated via a radioligand membrane binding assay using the DP1 selective synthetic ligand [^3H]BW A868C. Packed human platelets (Biological Specialty Corporation), were resuspended in 6 volumes of Hepes/HBSS buffer (10 mM Hepes, 1 mM DTT in Hanks Balanced Salt Solution (HBSS)), lysed and centrifuged at 75,000×g to pellet the membranes. Membranes were resuspended in Hepes/HBSS buffer to approximately 12 mg protein/ml. Membranes (20 μg protein/well) are incubated in 96-well plates with 2 nM [^3H]BWA868C and test compound in Assay Buffer (50 mM Hepes, 10 mM MnCl2, 1 mM EDTA, plus or minus 0.2% human serum albumin, pH 7.4) for 60 minutes at room temperature. The reactions are terminated by rapid filtration through Whatman GF/C glass fibre filter plates. The filter plates were pre-soaked in 0.33% polethylenimine for 30 minutes at room temperature then washed in Wash Buffer (50 mM Hepes, 0.5 M NaCl pH 7.4) prior to harvesting. After harvesting, the filter plates are washed 3 times with 1 ml cold Wash Buffer then dried. Scintillant is then added to the plates and the radioactivity retained on the filters is determined on a Packard TopCount (Perkin Elmer). Specific binding is determined as total radioactive binding minus non-specific binding in the presence of 10 μM BW A868C. IC50s were determined using GraphPad prism analysis of drug titration curves.

For a further assay, the target named is T3, human DP2 receptor (Homo sapiens, UniProt Q9Y5Y4).
T3 construct: expressed in transfected cells
T3 sequence (Q9Y5Y4 1-395): T1 sequence (Q9Y5Y4 1-395)
Kind of assay: DP2/CRTH2 radioligand binding assay using [3H]PGD2. The note with it: hDP2 (CRTH2) binding assay. The procedure:
The ability of a compound to bind to the human DP2 receptor is assessed via a radioligand binding assay using [^3H]PGD2. HEK293 cells stably expressing recombinant human DP2 are resuspended in 10 mM Hepes, 7.4 containing 1 mM DTT, lysed and centrifuged at 75,000×g to pellet the membranes. The membranes are resuspended in 10 mM Hepes, 7.4 containing 1 mM DTT and 10% glycerol to approximately 5 mg protein/ml. Membranes (2-10 μg protein/well) are incubated in 96-well plates with 1 nM [^3H]PGD2 and test compound in Assay Buffer (50 mM Hepes, 10 mM MnCl2, 1 mM EDTA, plus or minus 0.2% human serum albumin, pH 7.4) for 60 minutes at room temperature. The reactions are terminated by rapid filtration through Whatman GF/C glass fibre filter plates. The filter plates were pre-soaked in 0.33% polythylenimine for 30 minutes at room temperature then washed in Wash Buffer (50 mM Hepes, 0.5 M NaCl pH 7.4) prior to harvesting. After harvesting, the filter plates are washed 3 times with 1 ml cold Wash Buffer then dried. Scintillant is then added to the plates and the radioactivity retained on the filters is determined on a Packard TopCount (Perkin Elmer). Specific binding is determined as total radioactive binding minus non-specific binding in the presence of 10 μM PGD2. IC50s were determined using GraphPad prism analysis of drug titration curves.

As for `O=C(O)Cc1cccc(Oc2ccc(Br)cc2CN2CCOC2=O)c1` [Compound 1-3, {3-[4-Bromo-2-(2-oxo-oxazolidin-3-ylmethyl)-phenoxy]-phenyl}-acetic acid], the IC50 in assay [1] was 0.3 to 1 µM; on human DP1 receptor, more than 1000 nM; on human DP2 receptor it was less than 300 nM.

As to `Cc1ncc(-c2ccc(Oc3cccc(CC(=O)O)c3)c(CN3C(=O)O[C@H](c4ccccc4)[C@@H]3C)c2)n1C` [Compound 1-71, {3-[4-(2,3-Dimethyl-3H-imidazol-4-yl)-2-((4S,5R)-4-methyl-2-oxo-5-phenyl-oxazolidin-3-ylmethyl)-phenoxy]-phenyl}-acetic acid], the IC50 at human DP1 receptor and at human DP2 receptor was 300 to 1000 nM throughout.

In the case of `Cc1c[nH]c(-c2ccc(Oc3cccc(CC(=O)O)c3)c(CN3C(=O)O[C@H](c4ccccc4)[C@@H]3C)c2)n1` [Compound 1-72, {3-[4-(4-Methyl-1H-imidazol-2-yl)-2-((4S,5R)-4-methyl-2-oxo-5-phenyl-oxazolidin-3-ylmethyl)-phenoxy]-phenyl}-acetic acid], the IC50 was more than 1000 nM at human DP1 receptor and less than 300 nM at human DP2 receptor.

As for `C[C@H]1[C@@H](c2ccccc2)OC(=O)N1Cc1cc(-c2nccn2C)ccc1Oc1cccc(CC(=O)O)c1` [Compound 1-73, {3-[4-(1-Methyl-1H-imidazol-2-yl)-2-((4S,5R)-4-methyl-2-oxo-5-phenyl-oxazolidin-3-ylmethyl)-phenoxy]-phenyl}-acetic acid], the IC50 at human DP1 receptor and on human DP2 receptor was 300 to 1000 nM throughout.

With `C[C@H]1[C@@H](c2ccccc2)OC(=O)N1Cc1cc(-c2nccs2)ccc1Oc1cccc(CC(=O)O)c1` [Compound 1-74, {3-[2-((4S,5R)-4-Methyl-2-oxo-5-phenyl-oxazolidin-3-ylmethyl)-4-thiazol-2-yl-phenoxy]-phenyl}-acetic acid], the IC50 on human DP1 receptor and at human DP2 receptor was less than 300 nM each time.

With `COc1ccc(CC(=O)O)cc1Oc1ccc(N2CCOCC2)cc1CN1CCOC1=O` [Compound 1-90, {4-Methoxy-3-[4-morpholin-4-yl-2-(2-oxo-oxazolidin-3-ylmethyl)-phenoxy]-phenyl}-acetic acid], the IC50 on human DP1 receptor and at human DP2 receptor was more than 1000 nM each time.

Regarding `COc1ccc(CC(=O)O)cc1Oc1ccc(-c2ccc(S(C)(=O)=O)cc2)cc1CN1CCOC1=O` [Compound 1-92, {3-[4′-Methanesulfonyl-3-(2-oxo-oxazolidin-3-ylmethyl)-biphenyl-4-yloxy]-4-methoxy-phenyl}-acetic acid], the results for the IC50 on human DP1 receptor and at human DP2 receptor were more than 1000 nM and less than 300 nM, respectively.

As for `COc1ccc(CC(=O)O)cc1Oc1ccc(-c2cccc(S(C)(=O)=O)c2)cc1CN1CCOC1=O` [Compound 1-93, {3-[3′-Methanesulfonyl-3-(2-oxo-oxazolidin-3-ylmethyl)-biphenyl-4-yloxy]-4-methoxy-phenyl}-acetic acid], the IC50 on human DP1 receptor is more than 1000 nM; on human DP2 receptor, less than 300 nM.

In the case of `COc1ccc(CC(=O)O)cc1Oc1ccc(-c2ccccc2S(C)(=O)=O)cc1CN1CCOC1=O` [Compound 1-94, {3-[2′-Methanesulfonyl-3-(2-oxo-oxazolidin-3-ylmethyl)-biphenyl-4-yloxy]-4-methoxy-phenyl}-acetic acid], the figures for the IC50 at human DP1 receptor and at human DP2 receptor were more than 1000 nM and less than 300 nM, respectively.

With `COc1ccc(CC(=O)O)cc1Oc1ccc(-c2ccccc2)cc1CN1CCOC1=O` [Compound 1-95, {4-Methoxy-3-[3-(2-oxo-oxazolidin-3-ylmethyl)-biphenyl-4-yloxy]-phenyl}-acetic acid], the IC50 at human DP1 receptor was more than 1000 nM; at human DP2 receptor, less than 300 nM.

As to `COc1ccc(CC(=O)O)cc1Oc1ccc(-c2cnn(C)c2)cc1CN1CCOC1=O` [Compound 1-96, {4-Methoxy-3-[4-(1-methyl-1H-pyrazol-4-yl)-2-(2-oxo-oxazolidin-3-ylmethyl)-phenoxy]-phenyl}-acetic acid], the IC50 on human DP1 receptor is more than 1000 nM; at human DP2 receptor it was less than 300 nM.

Consider `COc1ccc(CC(=O)O)cc1Oc1ccc(NC(=O)c2cc(C(F)(F)F)cc(C(F)(F)F)c2)cc1CN1CCOC1=O` [Compound 1-97, {3-[4-(3,5-Bis-trifluoromethyl-benzoylamino)-2-(2-oxo-oxazolidin-3-ylmethyl)-phenoxy]-4-methoxy-phenyl}-acetic acid], for which the values for the IC50 at human DP1 receptor and at human DP2 receptor were more than 1000 nM and less than 300 nM, respectively.

On to `COc1ccc(CC(=O)O)cc1Oc1ccc(NC(=O)c2cc(C(F)(F)F)ccc2F)cc1CN1CCOC1=O` [Compound 1-98, {3-[4-(2-Fluoro-5-trifluoromethyl-benzoylamino)-2-(2-oxo-oxazolidin-3-ylmethyl)-phenoxy]-4-methoxy-phenyl}-acetic acid], for which the values for the IC50 on human DP1 receptor and on human DP2 receptor were more than 1000 nM and less than 300 nM, respectively.

For `COc1ccc(CC(=O)O)cc1Oc1ccc(NS(=O)(=O)c2ccc(Cl)cc2)cc1CN1CCOC1=O` [Compound 1-99, {3-[4-(4-Chloro-benzenesulfonylamino)-2-(2-oxo-oxazolidin-3-ylmethyl)-phenoxy]-4-methoxy-phenyl}-acetic acid], the values for the IC50 on human DP1 receptor and on human DP2 receptor were more than 1000 nM and less than 300 nM, respectively.

Take `O=C(O)Cc1cccc(Oc2ccc(Br)cc2CN2CCCC2=O)c1` [Compound 3-1, {3-[4-Bromo-2-(2-oxo-pyrrolidin-1-ylmethyl)-phenoxy]-phenyl}-acetic acid]: the IC50 on human DP1 receptor and on human DP2 receptor was more than 1000 nM each time.

Take `COc1ccc(CC(=O)O)cc1Oc1ccc(Br)cc1CN1CCNC1=O` [Compound 3-3, {3-[4-Bromo-2-(2-oxo-imidazolidin-1-ylmethyl)-phenoxy]-4-methoxy-phenyl}-acetic acid]: the figures for the IC50 on human DP1 receptor and on human DP2 receptor were more than 1000 nM and 300 to 1000 nM, respectively.

`COc1ccc(CC(=O)O)cc1Oc1ccc(Br)cc1CN1CCN(C)C1=O` [Compound 3-4, {3-[4-Bromo-2-(3-methyl-2-oxo-imidazolidin-1-ylmethyl)-phenoxy]-4-methoxy-phenyl}-acetic acid]: the IC50 at human DP1 receptor and at human DP2 receptor was more than 1000 nM throughout.
